The text below walks through data of patent US10464957B2, “Oxidized lipids and methods of use thereof” (Vascular Biogenics Ltd., priority 2014, dated 2019).

Molecules are shown by their SMILES. A value given as a limit tells only on which side of the number the result lay.

The test system of experiment [1] is LPS (TLR4)-induced signaling in human monocytes (primary CD14+). Briefly: LPS (TLR4)-induced signaling, western blot. It counts as cell-based. The note with it: for formation of p-IKK, p-ERK and p-p38 induced by LPS: 20 min pretreatment, 15 min activation with 100 ng/ml LPS. How it is done:
Venous blood samples were obtained from healthy male donors in compliance with the Institutional Review Board at the Sheba Medical Center, Ramat Gan, Israel. PBMCs were isolated on Ficoll-Paque PLUS (GE Healthcare, Uppsala, Sweden) using 50 ml Leucosep tubes (Greiner Bio-One, Frickenhausen, Germany). Cells were washed in PBS (Kibbutz Beit Haemek, Israel) and incubated at 4° C. for 15 minutes in a buffer containing PBS and 0.5% bovine serum albumin (BSA) with human CD14 microbeads (Miltenyi Biotec, Bergisch Gladbach, Germany).
(§1) Cells (10^6/ml) were pretreated for 20 min with VB-201 (1-hexadecyl-2-(4′-carboxy)butyl-glycero-3-phosphocholine or 1-hexadecyl-2-(4′-carboxybutyl)-glycerol-3-phosphocholine) or VB-701 at the doses indicated in FIG. 2, or with solvent (Sol), followed by 15 min activation with 100 ng/ml lipopolysaccharide (LPS) or were untreated (Unt). Cells were washed and resuspended in lysis buffer containing 1:100 dithiothreitol (DTT), phosphatase and protease inhibitors (Thermo Scientific). Samples were loaded onto a precast Criterion TGX gel (Bio-Rad, Hemel Hempstead, UK) and transferred onto nitrocellulose membrane. Blots were blocked with 5% milk or BSA in Tris buffered saline and Tween 20 (TBST) for 1 h, followed by incubation with primary and secondary antibodies. Membranes were developed using an ECL kit (Thermo Scientific). The following antibodies were used for immunoblotting:
Primary antibodies: p-p38 (Cat. No. 4511; 1:1000) and p-IKK (Cat. No. 2697; 1:1000) were from Cell Signaling Technology (Danvers, Mass., USA). p-ERK1/2 (Cat. No. M8159; 1:10000) was purchased from Sigma (Israel). αTubulin (Tub) served as a loading control.
(§2) Secondary antibodies: HRP donkey anti-rabbit (1:5000) and HRP goat anti-mouse (1:3000) were from Jackson ImmunoResearch (West Grove, Pa., USA). HRP donkey anti-goat (1:5000) was from Santa Cruz Biotechnology.
as §1, with “VB-201” for “VB-201 (1-hexadecyl-2-(4′-carboxy)butyl-glycero-3-phosphocholine”, “VB-703” for “1-hexadecyl-2-(4′-carboxybutyl)-glycerol-3-phosphocholine) or VB-701 at the doses indicated in FIG. 2, or with solvent (Sol),”, “LPS.” for “lipopolysaccharide (LPS) or were untreated (Unt).”
Primary antibodies: p-p38 (Cat. No. 4511; 1:1000) and p-IKK (Cat. No. 2697; 1:1000) were from Cell Signaling Technology (Danvers, Mass., USA). p-ERK1/2 (Cat. No. M8159; 1:10000) was purchased from Sigma (Israel). Heat shock protein (HSP) 90 (Cat. No. 13119; 1:500) was from Santa Cruz Biotechnology (Santa Cruz, Calif., USA).

The test system of experiment [2] is LPS (TLR4) stimulated Mo-Derived DCs. Kind of experiment: Cytokine secretion ELISA, LPS (TLR4)-stimulated monocyte-derived dendritic cells. The note with it: 1 hour pretreatment, 24 hours 100 ng/ml LPS. It counts as cell-based, human. As for the experimental part: To generate monocyte-derived DC (Mo-DCs), CD14+ monocytes were counted, washed and seeded (10^6/ml) in medium containing RPMI-1640, L-glutamine, β-mercaptoethanol, 10% fetal calf serum (FCS), sodium pyruvate, non-essential amino acids, 0.01 M HEPES, antibiotics (penicillin, streptomycin), 50 ng/ml human granulocyte-macrophage colony-stimulating factor (GMCSF) and 20 ng/ml human IL-4 (both from PeproTech Asia, Israel). Medium was replaced every 2-3 days. Mo-DCs were collected 5-6 days post-culture, counted and seeded (10^6/ml). Cells were pretreated for 1 hour with VB-201 or VB-703, followed by 24 hours activation with 100 ng/ml LPS from Escherichia coli strain 055:B5 (Sigma, Israel) to induce cytokine production. IL-6 concentration (FIG. 14) and IL-12/23p40 (FIG. 15) concentration in supernatant were measured by ELISA (R&D systems, Cat. No. DY1240 and Cat. No. DY206, […]). Cells activated with solvent (0.5% ethanol in PBS) were used as a control.

In experiment [3] the test system is PGN (TLR2)-induced signaling in human monocytes (THP-1 cell line). Briefly: PGN (TLR2)-induced signaling, western blot. The experiment is classed as cell-based. The note with it: 20 min pretreatment, 20 μg/ml PGN for 15 minutes. How it is done: The monocytic THP-1 cell line was purchased from the American Type Tissue Culture Collection (ATCC Cat. No. TIB-202). Cells (10^6/ml) were pretreated for 20 min with VB-201 or VB-701 at the doses indicated in FIG. 3, or with solvent, followed by activation with 20 μg/ml peptidoglycan (PGN) (InvivoGen, San Diego, Calif.) for 15 minutes, or were untreated (“Unt”). Cells were washed and resuspended in lysis buffer containing 1:100 dithiothreitol (DTT), phosphatase and protease inhibitors (Thermo Scientific). Samples were loaded onto a precast Criterion TGX gel (Bio-Rad, Hemel Hempstead, UK) and transferred onto nitrocellulose membrane. Blots were blocked with 5% milk or BSA in Tris buffered saline and Tween 20 (TBST) for 1 h, followed by incubation with primary and secondary antibodies. Membranes were developed using an ECL kit (Thermo Scientific). The following antibodies were used for immunoblotting:
Primary antibodies: p-p38 (Cat. No. 4511; 1:1000) and p-IKK (Cat. No. 2697; 1:1000) were from Cell Signaling Technology (Danvers, Mass., USA). p-ERK1/2 (Cat. No. M8159; 1:10000) was purchased from Sigma (Israel). αTubulin served as a loading control.
as §2
A general note: Immunoblotting shows a protein as a band on a membrane.

The target in experiment [4] is T1, TLR4 complex (Homo sapiens, UniProt O00206+Q9Y6Y9).
T1 construct: endogenous in cells; probably the human primary monocytes of b454
Kind of experiment: LPS binding inhibition assay (biotin-LPS, FACS). As for the experimental part: To assess interference with lipopolysaccharide (LPS) binding, VB-201 or VB-703 were incubated for 20 min with cells (10^6/ml) after which 100 ng/ml of biotin-LPS (InvivoGen) was added for an additional 15 minutes, all at 4° C. Cells were washed, resuspended in FACS buffer and analyzed on a FACS-Calibur device.

T1 sequence (O00206 24-839): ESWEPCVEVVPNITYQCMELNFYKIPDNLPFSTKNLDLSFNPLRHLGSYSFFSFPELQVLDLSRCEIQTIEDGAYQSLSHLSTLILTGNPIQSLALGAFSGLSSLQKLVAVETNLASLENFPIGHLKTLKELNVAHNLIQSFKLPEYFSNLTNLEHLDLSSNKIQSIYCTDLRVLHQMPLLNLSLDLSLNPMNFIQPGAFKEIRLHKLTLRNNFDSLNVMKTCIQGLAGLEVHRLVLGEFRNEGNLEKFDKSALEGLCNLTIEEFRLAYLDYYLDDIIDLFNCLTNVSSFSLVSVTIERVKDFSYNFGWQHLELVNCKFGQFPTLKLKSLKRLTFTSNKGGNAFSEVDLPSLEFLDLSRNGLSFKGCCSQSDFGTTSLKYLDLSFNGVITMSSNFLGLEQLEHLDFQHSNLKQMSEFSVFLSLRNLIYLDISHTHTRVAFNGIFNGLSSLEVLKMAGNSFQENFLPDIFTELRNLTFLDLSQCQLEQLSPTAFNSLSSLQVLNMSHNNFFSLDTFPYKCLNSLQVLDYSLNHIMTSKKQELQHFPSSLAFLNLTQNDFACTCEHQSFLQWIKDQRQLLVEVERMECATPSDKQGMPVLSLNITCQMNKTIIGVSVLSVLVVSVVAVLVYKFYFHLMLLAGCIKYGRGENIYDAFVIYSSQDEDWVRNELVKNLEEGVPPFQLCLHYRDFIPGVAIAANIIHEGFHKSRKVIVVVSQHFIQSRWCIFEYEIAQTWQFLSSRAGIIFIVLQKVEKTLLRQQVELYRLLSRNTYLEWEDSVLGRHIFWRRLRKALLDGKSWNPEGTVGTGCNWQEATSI
T1 sequence (Q9Y6Y9 17-160 limits assumed): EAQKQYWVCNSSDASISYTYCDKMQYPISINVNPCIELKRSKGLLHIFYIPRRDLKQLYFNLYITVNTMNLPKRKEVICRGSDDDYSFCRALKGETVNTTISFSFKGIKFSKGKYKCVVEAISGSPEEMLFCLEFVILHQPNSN

For orientation: IC50 means the concentration at which inhibition is half-maximal. As to `CCCCCCCCCCCCCCCCOCC(COP(=O)([O-])OCC[N+](C)(C)C)OCCCCC(=O)O` (stereo not shown) [VB-201, 1-hexadecyl-2-(4′-carboxy)butyl-glycero-3-phosphocholine, reference compound], the “formation of p-IKK, p-ERK and p-p38 induced by LPS” value in experiment [1] (western blot) is “inhibit”. Also, the “formation of p-ERK and p-AKT induced by LPS” value in experiment [1] (western blot, LPS activation) was “inhibit”. Further, in experiment [2], the IL-6 secretion result is “inhibit” and the IL-12p40 secretion entry is recorded as “inhibit”. Further, in experiment [3], the “formation of p-IKK, p-ERK and p-p38 induced by PGN” value was “inhibit”. Besides, the IC50 in experiment [4] (biotin-LPS 100 ng/ml, 4° C., human primary monocytes) was roughly 12 µM.
In the case of `CCCCCCCCCCC(CCCCCCCC)COC[C@H](COP(=O)([O-])OCC[n+]1ccccc1)OCCCCC(=O)O` (stereo partly drawn) [VB-703, (R)-1-(2′-octyl)dodecyl-2-(4′-carboxy)butyl-sn-glycero-3-phosphoric acid pyridiniumethyl ester], the “formation of p-IKK, p-ERK and p-p38 induced by LPS” value in experiment [1] (western blot) is “inhibited”. In addition, the “efficacy in inhibiting TLR4-driven protein phosphorylation, fold higher than VB-201” value in experiment [1] (compared with VB-201) is reported as no less than 10 fold. Also, in experiment [2], the IL-6 secretion entry is listed as “inhibit” and the IL-12p40 secretion result is given as “inhibit”. Besides, in experiment [3], the “formation of p-IKK, p-ERK and p-p38 induced by PGN” value is listed as “inhibit”. Also, in experiment [4] (biotin-LPS 100 ng/ml, FACS), the “LPS-biotin binding to human monocytes (primary CD14+)” value is given as “inhibit”. Also, the “IC50 of LPS binding, fold lower than that of VB-201” value in experiment [4] (compared with VB-201) was greater than 10 fold.
